Laboratory results from US8828995B2, “Branched oxathiazine derivatives, method for the production thereof, use thereof as medicine and drug containing said derivatives and use thereof” (Sanofi, priority 2011, dated 2014).

Molecular target: human 11β-HSD1 microsome fraction (Homo sapiens, UniProt P28845)
Experiment: Enzymatic 11beta-HSD1 test (SPA-based detection)
Conditions: IC50 (nM), Biological activity, [1,2-3H]-cortisone, 0.25 mM NADPH, 37° C. for 1 hour
Protocol: Enzymatic 11beta-HSD1 test:
Protein and radioactive substrate were dispensed with a Biomek FX unit (Beckman Coulter) for handling liquids. The test compounds were added with a Cybi-Well equipped with a 90 nl pin tool (CyBio).

Chain of human 11β-HSD1 microsome fraction (P28845 whole entry): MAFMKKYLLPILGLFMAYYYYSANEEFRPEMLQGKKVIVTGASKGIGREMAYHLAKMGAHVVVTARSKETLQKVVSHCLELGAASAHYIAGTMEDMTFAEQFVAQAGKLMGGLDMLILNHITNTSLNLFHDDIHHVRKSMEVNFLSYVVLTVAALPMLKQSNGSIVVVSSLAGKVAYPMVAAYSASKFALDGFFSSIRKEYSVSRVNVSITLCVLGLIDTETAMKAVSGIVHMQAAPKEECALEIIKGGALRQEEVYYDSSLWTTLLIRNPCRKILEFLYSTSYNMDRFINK

IC50 [nM]	SMILES
11	O=S1(=O)N=C(N[C@@H](CCO)c2ccc(F)cc2)OC2CCCCC21 (single isomer, unassigned) [Example 19]
13	O=S1(=O)N=C(N[C@@H](CCO)c2ccc(F)cc2)OC2CCCCC21 (single isomer, unassigned) [Example 20]
742	O=S1(=O)N=C(N[C@@H](CCO)c2ccccc2)OC2CCOCC21 (single isomer, unassigned) [Example 26]
62	O=S1(=O)N=C(N[C@@H](CCO)c2ccccc2)OC2CCOCC21 (single isomer, unassigned) [Example 27]
34	CC12CCCCC1(C)S(=O)(=O)N=C(N[C@@H](CCO)c1ccccc1)O2 (single isomer, unassigned) [Example 31]
4	CC12CCCCC1(C)S(=O)(=O)N=C(N[C@@H](CCO)c1ccccc1)O2 (single isomer, unassigned) [Example 32]
9	CC12CCCCC1(C)S(=O)(=O)N=C(N[C@@H](CCO)c1cccnc1)O2 (single isomer, unassigned) [Example 33]
353	CC12CCCCC1(C)S(=O)(=O)N=C(N[C@@H](CCO)c1cccnc1)O2 (single isomer, unassigned) [Example 34]
575	O=S1(=O)N=C(N[C@@H](CO)Cc2ccccc2)OC2CCCCC21 (stereo partly drawn) [Example 2, (R)-2-(−1,1-Dioxo-4a,5,6,7,8,8a-hexahydro-1H-1lambda6-benzo[1,4,3]oxathiazin-3-ylamino)-3-phenyl-propan-1-ol]
24	O=S1(=O)N=C(N[C@H](CO)Cc2ccccc2)OC2CCCCC21 (stereo partly drawn) [Example 3, (S)-2-(−1,1-Dioxo-4a,5,6,7,8,8a-hexahydro-1H-1lambda6-benzo[1,4,3]oxathiazin-3-ylamino)-3-phenyl-propan-1-ol]
5	O=S1(=O)N=C(N[C@@H](CCO)c2ccc(F)cc2)OC2CCCCC21 (stereo partly drawn) [Example 9, (S)-3-(−1,1-Dioxo-4a,5,6,7,8,8a-hexahydro-1H-1lambda6-benzo[1,4,3]oxathiazin-3-ylamino)-3-(4-fluoro-phenyl)-propan-1-ol]
104	O=S1(=O)N=C(N[C@@H](CCO)c2cccc(F)c2)OC2CCCCC21 (stereo partly drawn) [Example 10, (S)-3-(−1,1-Dioxo-4a,5,6,7,8,8a-hexahydro-1H-1lambda6-benzo[1,4,3]oxathiazin-3-ylamino)-3-(3-fluoro-phenyl)-propan-1-ol]
27	O=S1(=O)N=C(N[C@@H](CCO)c2cccc(F)c2)OC2CCCCC21 (stereo partly drawn) [Example 17, (S)-3-(−1,1-Dioxo-4a,5,6,7,8,8a-hexahydro-1H-1lambda6-benzo[1,4,3]oxathiazin-3-ylamino)-3-(3-fluoro-phenyl)-propan-1-ol]
4	O=S1(=O)N=C(N[C@@H](CCO)c2ccc(F)cc2)OC2CCCCC21 (stereo partly drawn) [Example 18, (S)-3-(−1,1-Dioxo-4a,5,6,7,8,8a-hexahydro-1H-1lambda6-benzo[1,4,3]oxathiazin-3-ylamino)-3-(4-fluoro-phenyl)-propan-1-ol]
25	O=S1(=O)N=C(N[C@@H](CCO)c2cccnc2)O[C@H]2CCCC[C@H]21 [Example 25, (S)-3-((4aS,8aR)-1,1-Dioxo-4a,5,6,7,8,8a-hexahydro-1H-1lambda6-benzo[1,4,3]oxathiazin-3-ylamino)-3-pyridin-3-yl-propan-1-ol]
445	O=S1(=O)N=C(N[C@@H](CCO)c2ccccc2)OC2CCC(F)(F)CC21 (stereo partly drawn) [Example 28, (S)-3-(7,7-Difluoro-1,1-dioxo-4a,5,6,7,8,8a-hexahydro-1H-1lambda6-benzo[1,4,3]oxathiazin-3-ylamino)-3-phenyl-propan-1-ol]
15	NS(=O)(=O)CC(NC1=NS(=O)(=O)[C@@H]2CCCC[C@@H]2O1)c1ccccc1 (stereo partly drawn) [Example 29, 2-((4aS,8aR)-1,1-Dioxo-4a,5,6,7,8,8a-hexahydro-1H-1lambda6-benzo[1,4,3]oxathiazin-3-ylamino)-2-phenyl-ethanesulfonamide]
11	NS(=O)(=O)CC(NC1=NS(=O)(=O)[C@@H]2CCCC[C@@H]2O1)c1ccccc1 (stereo partly drawn) [Example 30, 2-((4aS,8aR)-1,1-Dioxo-4a,5,6,7,8,8a-hexahydro-1H-1lambda6-benzo[1,4,3]oxathiazin-3-ylamino)-2-phenyl-ethanesulfonamide]
